Results as given in ChEMBL document CHEMBL4316594, “An overview of grayanane diterpenoids and their biological activities from the Ericaceae family in the last seven years” (Eur J Med Chem, 2019).

Tests used:
Pieris brassicae = experiment: Antifeedant activity in Pieris brassicae measured 24 hrs post leaf feeding by leaf disc method; type: functional, organism-based
Mus musculus [1] = experiment: Antinociceptive activity in Kunming mouse model assessed as inhibition of acetic acid-induced writhes at 5 mg/kg, ip pretreated for 15 mins followed by acetic acid challenge and measured for 20 mins post acetic acid challenge relative to control; type: functional
Mus musculus [2] = experiment: Antinociceptive activity in ip dosed Kunming mouse model assessed as inhibition of acetic acid-induced writhes pretreated for 15 mins followed by acetic acid challenge and measured for 20 mins post acetic acid challenge; type: functional; conditions: read-out: ID50 (the source's name)
[3] = biological target: T1, Tyrosine-protein phosphatase non-receptor type 1 (Homo sapiens, UniProt P18031); experiment: Inhibition of recombinant human PTP1B expressed in Escherichia coli using pNPP as substrate preincubated for 30 mins followed by substrate addition for 45 mins and measured at 5 mins interval for 30 mins
T1 sequence (P18031 whole entry): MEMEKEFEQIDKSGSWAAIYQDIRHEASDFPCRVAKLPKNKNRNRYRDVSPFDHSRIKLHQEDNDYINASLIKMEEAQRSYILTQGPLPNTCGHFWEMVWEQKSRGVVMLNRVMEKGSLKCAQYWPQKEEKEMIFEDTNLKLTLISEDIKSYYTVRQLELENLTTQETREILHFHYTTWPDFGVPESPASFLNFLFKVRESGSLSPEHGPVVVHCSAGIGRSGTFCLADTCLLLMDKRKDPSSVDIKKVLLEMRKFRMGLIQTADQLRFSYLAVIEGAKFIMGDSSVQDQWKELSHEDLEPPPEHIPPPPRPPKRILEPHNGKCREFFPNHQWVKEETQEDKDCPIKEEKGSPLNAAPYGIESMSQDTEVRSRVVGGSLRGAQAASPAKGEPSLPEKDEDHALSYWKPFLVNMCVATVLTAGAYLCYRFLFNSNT

[4] = biological target: T1, Tyrosine-protein phosphatase non-receptor type 1; experiment: Inhibition of recombinant PTP1B catalytic domain (unknown origin) using pNPP as substrate
Influenza A virus = experiment: Antiviral activity against Influenza A virus (A/Hanfang/359/95(H3N2)) infected in MDCK cells assessed as reduction in virus-induced cytopathogenicity; type: functional, organism-based
Mus musculus [5] = experiment: Antinociceptive activity in Kunming mouse model assessed as inhibition of acetic acid-induced writhes at 10 mg/kg, ip pretreated for 15 mins followed by acetic acid challenge and measured for 20 mins post acetic acid challenge relative to control; type: functional
Mus musculus [6] = experiment: Antinociceptive activity in Kunming mouse model assessed as inhibition of acetic acid-induced writhes at 0.08 mg/kg, ip pretreated for 30 mins followed by acetic acid challenge and measured for 30 mins post acetic acid challenge relative to control; type: functional
[7] = biological target: T1, Tyrosine-protein phosphatase non-receptor type 1; experiment: Inhibition of recombinant human PTP1B expressed in Escherichia coli using pNPP as substrate preincubated for 10 mins followed by substrate addition for 30 mins and measured at 5 mins interval for 30 mins
Coxsackievirus B3 = experiment: Antiviral activity against Coxsackievirus B3 infected in African green monkey Vero cells; type: functional, organism-based; conditions: Enterovirus B

Compound: CC1=C[C@]23C[C@H]1CC[C@H]2[C@]1(C)[C@@H](O)CCCC(C)(C)C(=O)[C@@H]1C3
- inhibition (INH) (Pieris brassicae): 45%

Compound: CCC(=O)O[C@@H]1[C@H]2CC[C@H]3[C@@](C)(O)[C@@H]4CC(=O)O[C@]4([C@](C)(O)CCl)[C@H](OC(C)=O)[C@@H](OC(C)=O)[C@@]13[C@@H](OC(C)=O)[C@@]2(C)OC(C)=O
- EC50 (Pieris brassicae): 5.33 microg/cm2

Compound: CC(C)(O)[C@]12OC(=O)C[C@H]1[C@](C)(O)[C@@H]1CC[C@@H]3[C@@H](O)[C@@]1([C@H](O)[C@H]2O)[C@@H](O)[C@@]3(C)O
- inhibition in vivo at 5 mg/kg (Mus musculus [1]): 63.5%
- ED50 (Mus musculus [2]): 1.24 mg/kg

Compound: Cc1cccc(C[C@H]2O[C@]3(C)O[C@@]24[C@@H]([C@@H](O)[C@H](O)C4(C)C)[C@@H]3C)c1
- IC50 [3]: 23 µM

Compound: CC1(C)CCC[C@H](O)[C@@]2(C)[C@@H]3CC[C@@H]4C[C@@]3(C[C@H]2C1=O)C[C@@]4(C)O
- inhibition (INH) (Pieris brassicae): 45%

Compound: CCC(=O)O[C@@H]1[C@@H](OC(C)=O)[C@@]2([C@](C)(O)CCl)OC(=O)C[C@H]2[C@](C)(O)[C@@H]2CC[C@@H]3[C@@H](OC(C)=O)[C@]12[C@@H](OC(C)=O)[C@@]3(C)OC(C)=O
- EC50 (Pieris brassicae): 10.07 microg/cm2

Compound: C=C1[C@H]2C[C@H](O)C(C)(C)[C@@]2(O)[C@H](O)C[C@]23C=C(C)[C@H](CC[C@@H]12)[C@H]3O
- IC50 [4]: 3.14 µM

Compound: Cc1cccc(C[C@H]2O[C@]3(C)O[C@@]24[C@@H]([C@@H](O)[C@H](O)C4(C)C)[C@H]3C)c1
- IC50 [3]: 32.2 µM

Compound: CC1(C)[C@H]2O[C@H]2[C@H]2[C@@]3(C)O[C@H](C[C@@]45C=C[C@@H](C[C@H]43)[C@](C)(O)C5)[C@]21C
- IC50 (Influenza A virus): 19.2 µM

Compound: C[C@]12CC[C@H](O)[C@@]3(C)[C@@H]4CC[C@@H]5C[C@]4(C[C@@]5(C)O)C[C@@]3(OC1=O)C2=O
- inhibition in vivo at 10 mg/kg (Mus musculus [5]): 45%
- inhibition (INH) (Pieris brassicae): 45%

Compound: CO[C@H]1[C@H](O)C(C)(C)[C@@]2(O)[C@H](O)[C@@H](O)[C@]34C[C@@](C)(O)[C@H](CC[C@H]3[C@@](C)(O)[C@H]12)[C@H]4O
- inhibition in vivo at 0.08 mg/kg (Mus musculus [6]): 56.8%

Compound: CO[C@@H]1O[C@H]2O[C@@H]3C[C@]45C[C@@](C)(O)[C@H](CC[C@H]4[C@@](C)(O3)[C@H]2CC1(C)C)[C@H]5O
- IC50 [7]: 42.4 µM

Compound: CC1=C[C@@H]2O[C@@]3(C)[C@@H]4C[C@H](O)[C@H]1[C@]24C[C@@H](O)[C@@]1(O)[C@H]3[C@@H]2O[C@@H]2C1(C)C
- IC50 [7]: 24.3 µM

Compound: C=C1[C@H]2C[C@H](O)C(C)(C)[C@@]2(O)[C@H](O)C[C@]23C[C@@](C)(O)[C@H](CC[C@@H]12)[C@H]3O
- IC50 [4]: 24.5 µM

Compound: CO[C@H]1C[C@]23C[C@@](C)(O)[C@H](CC[C@H]2[C@](C)(C2=CO[C@H](OC)C(C)(C)C2=O)O1)[C@H]3O
- IC50 [7]: 16.7 µM

Compound: CC1(C)[C@@H](O)[C@H](Cl)[C@H]2[C@](C)(O)[C@@H]3CC[C@@H]4[C@@H](O)[C@]3(C[C@@]4(C)O)[C@H](O)[C@@H](O)[C@@]21O
- inhibition in vivo at 0.08 mg/kg (Mus musculus [6]): 49.8%

Compound: CO[C@@H]1C[C@]23C[C@@](C)(O)[C@H](CC[C@H]2[C@](C)(C2=CO[C@H](OC)C(C)(C)C2=O)O1)[C@H]3O
- IC50 [7]: 19.9 µM

Compound: CC(C)(O)[C@]12OC(=O)C[C@H]1[C@](C)(O)[C@@H]1[C@H](O)C[C@@H]3[C@@H](O)[C@@]1([C@H](O)[C@H]2O)[C@@H](O)[C@@]3(C)O
- inhibition in vivo at 5 mg/kg (Mus musculus [1]): 69.9%
- ED50 (Mus musculus [2]): 0.72 mg/kg

Compound: CC(=O)[C@@H]1C[C@@H](O)[C@H]2[C@@H](O)[C@@]1(C[C@H]1OC(=O)C(C)(C)[C@]1(O)CCO)C[C@@]2(C)O
- IC50 (Coxsackievirus B3): 27.7 µM

Compound: CC(O)C(=O)O[C@@H]1[C@H]2CC[C@H]3[C@@](C)(O)[C@@H]4[C@@H]5O[C@@H]5C(C)(C)[C@@]4(O)[C@H](O)C(=O)[C@@]13C[C@@]2(C)O (stereo partly drawn)
- inhibition in vivo at 0.08 mg/kg (Mus musculus [6]): 37.6%
